In US6747056B2, “K99-5041 substance and production thereof” (The Kitasato Institute, priority 2002, dated 2004):

Legend:
[1] = molecular target: T1, Lanosterol synthase of human origin (Homo sapiens, UniProt P48449); assay: Inhibitory action against lanosterol synthase of human origin (cell-free extract of transformed yeast, [14C](3S)-2,3-oxidosqualene substrate); assay type: biochemical; conditions: human lanosterol synthase expressed in yeast GIL77, cell-free extract 1 mg protein; 37° C., 60 minutes; substrate 0.17-0.42 μM; read-out: 50% inhibition concentration (IC50) for lanosterol synthase activity
T1 construct: made in house; host or cells: lanosterol synthase deficient yeast GIL77 (GAPDH promoter); cell-free extract
T1 sequence (P48449 1-732): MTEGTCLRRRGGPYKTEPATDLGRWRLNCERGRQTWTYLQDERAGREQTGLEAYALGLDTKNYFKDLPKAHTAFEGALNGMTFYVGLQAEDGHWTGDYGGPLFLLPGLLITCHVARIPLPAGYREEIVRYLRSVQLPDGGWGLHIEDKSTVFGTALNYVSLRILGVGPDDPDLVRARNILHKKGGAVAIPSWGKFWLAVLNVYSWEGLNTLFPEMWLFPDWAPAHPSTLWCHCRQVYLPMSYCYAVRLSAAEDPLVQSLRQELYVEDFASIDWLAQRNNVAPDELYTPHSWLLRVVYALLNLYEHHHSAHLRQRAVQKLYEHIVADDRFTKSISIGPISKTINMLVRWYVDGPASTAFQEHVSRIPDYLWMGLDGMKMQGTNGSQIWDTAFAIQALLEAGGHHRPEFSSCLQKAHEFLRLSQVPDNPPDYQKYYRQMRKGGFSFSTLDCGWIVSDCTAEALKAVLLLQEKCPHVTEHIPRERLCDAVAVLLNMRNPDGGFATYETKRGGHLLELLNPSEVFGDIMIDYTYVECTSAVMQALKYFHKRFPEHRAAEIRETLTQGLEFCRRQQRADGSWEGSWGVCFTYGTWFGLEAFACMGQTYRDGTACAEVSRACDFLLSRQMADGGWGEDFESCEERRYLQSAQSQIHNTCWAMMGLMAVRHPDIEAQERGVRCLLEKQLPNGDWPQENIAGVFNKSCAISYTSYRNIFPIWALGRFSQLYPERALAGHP
Protocol: (1) Inhibitory Action Against Lanosterol Synthase of Human Origin
Enzyme origin used is as follows. […] The thus obtained cell-free extract derived from transformed yeast was used.
The above transformed yeast was homogenized in buffer A [0.1 M potassium-phosphate buffer solution (pH 7.4), 0.45 M sucrose, 1 mM EDTA and 1 mM dithiothreitol] in the presence of acid treated glass beads using Waring blender [Type 500ACD, Sakuma Seisakusho Co., Japan]. Supernatant obtained by centrifugation, 8600×g, was prepared to make protein concentration of 10 mg/ml by adding the buffer A hereinabove to prepare the cell-free extract.
Assay of lanosterol synthase was performed as follows.
Subsequently, 6% potassium hydroxide/ethanol was added thereto to terminate the reaction, and the mixture was saponificated by incubating at 37° C. for 10 minutes, added cyclohexane 2 ml and stirred well. The cyclohexane layer 1.6 ml was dried up, spotted on TLC plate [silica gel plate (with concentration zone), Merck Inc., U.S.A., thickness 0.25 mm: Art. […] Next, amounts of unreacted [^14C](3S)-2,3-oxidosqualene and generated [^14C]lanosterol were quantitatively assayed using the photo image analyzer BAS-1500 (Fuji Photo Film Co., Japan) to calculate inhibition rate of lanosterol synthesis.

Solubility in solvent = assay type: physicochemical; conditions: for Solubility in solvent: organic solvents: methanol, ethanol, acetonitrile, ethyl acetate, chloroform and dimethyl sulfoxide
[2] = Grouping for acidic, neutral and basic; assay type: physicochemical

## CC1=NCC/C1=C\CCCCCCCCCCCCCC(C)C [K99-5041-C1x substance]
[1]
  IC50: 15 µM
Solubility in solvent
  Solubility in solvent: organic solvents: soluble
  Solubility in solvent: water: insoluble
[2]
  Grouping for acidic, neutral and basic: Weak basic substance

## CCCCCCCCCCCCCCCC/C=C1\CCN=C1C [K99-5041-C2x substance]
[1]
  IC50: 18 µM
Solubility in solvent
  Solubility in solvent: organic solvents: soluble
  Solubility in solvent: water: insoluble
[2]
  Grouping for acidic, neutral and basic: Weak basic substance
